One data set deals with J-Lat A1 cells. The experiment in a line: Cell viability of J-Lat A1 cells by Live/Dead dye staining. The data set is classed as cell-based. The note with it: 2-40 nM PEP005. The method, then:
FIG. 1: PEP005 induces reactivation of HIV latency in vitro. J-Lat A1 cells were exposed to different concentrations of PEP005 and virus reactivation was measured by GFP expression using flow cytometry. Cell viability was determined by Live/Dead dye staining. (A) Chemical Structure of PEP005. […] (D) PEP005 potently reactivates latent HIV in cell lines compared with other LRAs. J-Lat A1 cells were treated with 10 nM PEP005, 500 nM SAHA, 2 μM JQ1, 2 μM GSK343, 10 ng/ml TNF, 2 μM Prostratin, or 5 ng/ml PMA for 24 hours and the percentage of GFP expression was evaluated using flow cytometry. *, p<0.05; **, p<0.01.
J-Lat A1 cells (harboring a single copy of latent HIV LTR and one copy of green fluorescent protein gene under the HIV LTR control) or U1 cells (harboring two latent HIV genomes with defective Tat gene) were cultured in RPMI1640 medium with 10% fetal bovine serum (FBS) and 1% Pen/strep in a 37° C. incubator containing 5% CO2 [24,31]. Both of the cell lines were obtained from NIH AIDS Reagent Program. […] HIV reactivation was quantified by GFP expression using flow cytometry and the data were analyzed using FlowJo Software for J-Lat A1 cells, or by quantitative RT-PCR (RT-qPCR) for J-Lat A1 and U1 cells. Cell viability was evaluated using Live/Dead dye (Life Technologies) by flow cytometry. […]

Data set [1] concerns NF-κB/p65 binding to HIV LTR. The experiment in a line: ChIP-qPCR of NF-κB/p65 binding to the HIV LTR in J-Lat A1 cells. The data set is classed as cell-based. The note with it: 12 nM PEP005. As for the experimental part:
FIG. 4: PEP005-induced HIV reactivation is mediated through PKCδ/θ-IκBα/ε-NF-κB signaling. (A) PEP005-induced HIV reactivation is suppressed by inhibition of the PKCδ/θ. J-Lat A1 cells were treated with 6 nM of PEP005 in the presence of 1, 2 or 5 μM of PKC inhibitor (PKCθ/δ inhibitor; Milipore/Calbiochem (539649)) and evaluated for GFP expression by RT-qPCR. (B) NF-κB inhibition partially suppresses PEP005-induced HIV reactivation in J-Lat A1 cells. J-Lat A1 cells were treated with 6 nM of PEP005 in the presence of 2.5 μM Bay 11-7082, an NF-κB inhibitor, and were evaluated for GFP expression by RT-qPCR. (C) J-Lat A1 cells were treated with PEP005 or alternatively with PKC inhibitor alone or in the presence of PEP005 and the relative binding of NF-κB to the HIV LTR was determined using ChIP-qPCR.
Chromatin immunoprecipitation (ChIP): ChIP assay was performed as previously described. Briefly, 1×10^6 J-Lat A1 cells were incubated with PEP005, or PKCδ/θ inhibitor (PKGδi, Millipore/Calbiochem), fixed in 1% formaldehyde then resuspended in lysis buffer containing 1% SDS, 10 mM EDTA, 50 mM Tris-HCl, pH 8.1 (ChIP Assay Kit, Millipore) and protease inhibitor cocktail (Sigma-Aldrich). […] DNA was extracted (Qiagen PCR purification kit) and quantitative real-time PCR was performed using Agilent Brilliant Ultra-Fast SYBR Green QPCR reagent using the 7500 real-time PCR System. […]
On the technique in general: Real-time PCR tracks product formation cycle by cycle.

In data set [2] the test system is primary CD4+ T cells. In words: Pro-inflammatory cytokine expression in primary CD4+ T cells (RT-qPCR). The note with it: CD4+ T cells of healthy HIV-negative donors, 6 or 12 nM PEP005, 24 or 72 hours. The data set is classed as cell-based, human. As for the experimental part: CD4+ T cells were isolated from healthy donors and treated with 6 or 12 nM of PEP005 for 24 or 72 hours, and the relative expression of TNF-α (A), IFN-γ (B), IL-2 (C), and IL-6 (D) was quantified using RT-qPCR and normalized to GAPDH internal control.

In data set [3] the test system is J-Lat A1 cells, U1 cells, primary CD4+ T cells. The experiment in a line: Cell viability by MTT assay. The data set is classed as cell-based. The note with it: J-Lat A1 and U1 cell lines, 12 nM PEP005, 24 hours. As for the experimental part:
FIG. 7: PEP005 causes minimal cytotoxicity and T cell proliferation. To evaluate the impact of PEP005 on the cell viability, U1 cells (A), J-Lat A1 cells (B) and CD4+ T cells (C) were treated with 12 nM of PEP005 for 24 hours, the cell viability was examined with the MTT assay and the S-phase cell cycle progression was evaluated after BrdU incorporation using BrdU ELISA. 25-50 μM Etoposide or 100-150 μM Doxorubicin (Doxo) served as positive controls for MTT and BrdU assays respectively. Statistical analysis was performed in comparison with controls. **, p<0.01.
Cells were placed in 96-well plates and incubated for 24 or 72 h hrs with compounds. Cell viability was measured using MTT assay (Roche Laboratories), and cell proliferation/S-phase progression was determined by using BrdU ELISA kit (Cell signaling, #1863).
Background: Tetrazolium dyes change colour on reduction, which living cells bring about.

Data set [4] has as its system primary CD4+ T cells.
Method: FIG. 5: Expression of T cell activation markers in PEP005-treated primary CD4+ T cells. (A) CD4+ T cells were isolated from uninfected control subjects and treated with 12 nM PEP005 for 24 hrs. Total RNA was extracted, and gene expression of CD38, CD69, CD25, or HLA-DR was analyzed by RT-qPCR. (B-F) PBMCs isolated from peripheral blood of healthy HIV-negative donors were treated for 24 or 72 hours with 12 nM of PEP005, and the expression of CD38 (B), CD69 (C, D), and HLA-DR (E, F) was evaluated using flow cytometry after co-staining with the CD3 T cell marker.
Isolation of the peripheral blood mononuclear cells (PBMC) and purification of CD4+ T cells using the EasySep kit ([sequence] Technologies Inc. Vancouver, BC, Canada) were performed as previously described [24]. The purified CD4+ T cells were plated at a density of 1×10^6 cells/ml and treated with 200 ng/ml PMA plus 2 μM Ionomycin, 6-12 nM PEP005, 2 μM of JQ1, or 12 nM PEP005 plus 2 μM JQ1 for 6 hrs or 48 hrs and the cells were collected for RNA purification. To measure changes in the cell activation status of CD4+ and CD8+ T cell subsets, PBMCs were isolated from uninfected controls and 2×10^6 cells were incubated with DMSO, 200 ng/ml PMA plus 2 μM Ionomycin, 6-12 nM PEP005 for 24 hrs or 72 hrs, and immunostained with anti-CD3, anti-CD38, anti-CD69, or anti-HLA-DR antibodies (Biolegend) for 20 min at 4° C. Cells were fixed in 1% PFA and analyzed by flow cytometry (FlowJo software from TreeStar).
Where [5] appears, read: PBMCs of healthy HIV-negative donors, 12 nM PEP005, 24 or 72 hours.
Where [6] appears, read: purified primary CD4+ T cells, 12 nM PEP005, 24 hrs.

Results on 1 molecule are retold here after patent US10376486B2, “Compositions and methods for reactivating latent viral infections” (priority 2014, dated 2019).

Structures are written as SMILES.

For `C/C=C(/C)C(=O)O[C@H]1C(C)=C[C@]23C(=O)[C@@H](C=C(CO)[C@@H](O)[C@]12O)[C@H]1[C@@H](C[C@H]3C)C1(C)C` [PEP005, (1aR,2S,5R,5aS,6S,8aS,9R,10aR)-5,5a-Dihydroxy-4-(hydroxymethyl)-1,1,7,9-tetramethyl-11-oxo-1a,2,5,5a,6,9,10,10a-octahydro-1H-2,8a-methanocyclopenta[a]cyclpropa[e][10]annulen-6-yl (2Z)-2-methylbut-2-enoate], the cellular toxicity entry in the data set on J-Lat A1 cells is “absence of any apparent cellular toxicity”. Also, the “increase in NF-κB/p65 binding to HIV LTR region” value in data set [1] was determined as 6 fold. Also, the “expression of TNF-α, IFN-γ, IL-2, and IL-6” value in the data set with primary CD4+ T cells [2] was “no significant increase”. In addition, the “expression of TNF-α” value in the data set on primary CD4+ T cells [2] (not statistically significant) was “tendency towards an up-regulation”. For the same molecule, the “cellular toxicity (MTT)” value in data set [3] was “minimal levels of cellular toxicity”. In addition, in the data set on primary CD4+ T cells [4] (setting [5]), the “expression of CD38 (24 hr) and HLA-DR by flow cytometry” value was “no significant change”; the “expression of CD69 by flow cytometry” value was “increase in expression of CD69”. In addition, in the data set with primary CD4+ T cells [4] (setting [6]), the “expression of CD38, CD25, or HLA-DR by RT-qPCR” value is given as “did not cause any significant change” and the “expression of CD69 by RT-qPCR” value is given as “increased expression of CD69”.
